Measurements published in patent US6685617B1, “Inhibitors of α4β1 mediated cell adhesion” (Pharmacia & Upjohn Company, priority 1998, dated 2004).

How the values were obtained:
[1] = target: T1, α4β1 integrin (Jurkat cell adhesion to immobilized CS-1 derived peptide CLHPGEILDVPST) (Homo sapiens, UniProt P05556+P13612); test: Jurkat-CS-1 assay; assay type: cell-based; conditions: Jurkat cells on CS-1 peptide coated plates; read-out: JK/CS-1 (Jurkat CS-1 Assay IC50 value range)
T1 construct: 100 μl of Jurkat cells (2.5×10^6 cells/ml) in DMEM plus BSA; host or cells: Jurkat T-cell line
T1 sequence (P13612 34-1032): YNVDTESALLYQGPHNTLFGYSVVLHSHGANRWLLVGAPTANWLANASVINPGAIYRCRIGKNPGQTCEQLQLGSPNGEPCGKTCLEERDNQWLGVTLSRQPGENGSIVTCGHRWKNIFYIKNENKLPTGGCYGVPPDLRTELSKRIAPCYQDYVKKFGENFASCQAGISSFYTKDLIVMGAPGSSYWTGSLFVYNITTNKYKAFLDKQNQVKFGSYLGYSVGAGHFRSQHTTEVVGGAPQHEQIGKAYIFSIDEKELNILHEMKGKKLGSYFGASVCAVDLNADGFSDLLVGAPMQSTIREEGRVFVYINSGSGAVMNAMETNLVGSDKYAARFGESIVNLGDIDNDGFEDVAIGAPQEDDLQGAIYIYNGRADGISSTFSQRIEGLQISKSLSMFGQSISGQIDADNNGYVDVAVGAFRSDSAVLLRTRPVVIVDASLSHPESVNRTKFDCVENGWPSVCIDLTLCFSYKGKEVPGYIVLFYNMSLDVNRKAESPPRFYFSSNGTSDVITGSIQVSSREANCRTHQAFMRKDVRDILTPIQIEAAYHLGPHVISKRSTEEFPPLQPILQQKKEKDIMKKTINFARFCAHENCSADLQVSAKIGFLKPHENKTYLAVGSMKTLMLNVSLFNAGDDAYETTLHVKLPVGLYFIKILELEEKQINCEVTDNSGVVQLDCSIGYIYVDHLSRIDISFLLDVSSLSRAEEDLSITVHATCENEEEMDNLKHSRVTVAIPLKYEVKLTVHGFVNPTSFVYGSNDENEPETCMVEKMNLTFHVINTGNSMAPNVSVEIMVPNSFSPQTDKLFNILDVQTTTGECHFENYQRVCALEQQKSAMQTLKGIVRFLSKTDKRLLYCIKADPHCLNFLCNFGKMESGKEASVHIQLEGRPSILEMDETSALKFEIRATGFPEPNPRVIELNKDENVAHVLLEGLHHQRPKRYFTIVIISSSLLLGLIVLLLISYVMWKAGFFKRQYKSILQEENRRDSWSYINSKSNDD
T1 sequence (P05556 21-798): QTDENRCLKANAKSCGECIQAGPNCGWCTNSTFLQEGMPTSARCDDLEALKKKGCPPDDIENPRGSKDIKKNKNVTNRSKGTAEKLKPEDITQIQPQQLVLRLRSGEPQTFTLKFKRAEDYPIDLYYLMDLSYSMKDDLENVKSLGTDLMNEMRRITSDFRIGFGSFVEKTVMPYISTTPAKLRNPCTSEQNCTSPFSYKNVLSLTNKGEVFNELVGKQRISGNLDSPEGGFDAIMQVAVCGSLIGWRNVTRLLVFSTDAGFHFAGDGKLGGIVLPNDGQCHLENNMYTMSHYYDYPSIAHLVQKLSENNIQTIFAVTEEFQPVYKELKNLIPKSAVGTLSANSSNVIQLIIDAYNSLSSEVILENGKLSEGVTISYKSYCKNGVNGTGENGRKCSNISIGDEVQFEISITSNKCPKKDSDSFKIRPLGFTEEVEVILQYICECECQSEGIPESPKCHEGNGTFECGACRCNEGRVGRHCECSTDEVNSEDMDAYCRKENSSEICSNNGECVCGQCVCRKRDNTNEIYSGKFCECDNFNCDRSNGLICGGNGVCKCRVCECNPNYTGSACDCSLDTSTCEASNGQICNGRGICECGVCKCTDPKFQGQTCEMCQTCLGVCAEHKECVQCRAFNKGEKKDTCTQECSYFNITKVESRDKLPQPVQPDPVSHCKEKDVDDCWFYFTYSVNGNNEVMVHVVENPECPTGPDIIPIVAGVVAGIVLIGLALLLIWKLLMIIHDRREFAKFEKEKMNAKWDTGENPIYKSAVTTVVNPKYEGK
Summary of the method: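 CS-1 peptide was SPDP-crosslinked onto HSA-coated plates and blocked with BSA. Jurkat cells (2.5×10^6 cells/ml) in DMEM/BSA were mixed with compound, generally at 100, 20, 5 and 1.25 μM, and allowed to adhere for 1 hr at 37° C. Bound cells were fixed, stained with toluidine blue and quantified by OD590.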

[2] = target: T2, α4β1 integrin (Jurkat T-cell adhesion to IL-1 stimulated endothelial cell monolayers) (Homo sapiens, UniProt P05556+P13612); test: Jurkat-endothelial cell adhesion assay (Jurkat EC); assay type: cell-based; conditions: Jurkat cells on IL-1 stimulated human umbilical vein endothelial cells; read-out: JK/EC (Jurkat EC Assay IC50 value range)
T2 construct: a T-cell line, Jurkat, known to express the α4β1 integrin; host or cells: Jurkat T-cell line
T2 sequence (P13612 34-1032): as the sequence (P13612 34-1032) above
T2 sequence (P05556 21-798): as the sequence (P05556 21-798) above
Summary of the method: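 Adhesion was expressed as percent of compound-free fluorescence after 20 min at 37° C (following 5 min settling on ice) of BCECF-loaded Jurkat T cells on washed HUVEC monolayers. The endothelium, passage 6 or lower, had received 0.1 ng/ml recombinant IL-1 for 4 hr at 37° C; compound was premixed with the T cells, typically at 100, 20, 5 and 1.25 μM.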

Compound	IC50 [1]	IC50 [2]
O=C(O)c1ccccc1C(=O)N1CCCC(C(=O)N[C@@H](Cc2ccc(NC(=O)c3c(Cl)cccc3Cl)cc2)C(=O)O)C1 (stereo partly drawn) [Example 204]	50 to 750 nM	250 to 1000 nM
O=C(O)c1cccc(C(=O)N2CCCC[C@@H]2C(=O)N[C@@H](Cc2ccc(NC(=O)c3c(Cl)cccc3Cl)cc2)C(=O)O)n1 [Example 251]	≤ 50 nM	≤ 250 nM
COC(=O)[C@H](Cc1ccc(NC(=O)c2c(Cl)cccc2Cl)cc1)NC(=O)[C@@H]1N(C(C)=O)C(C)(C)SC1(C)C [Example 87, N-[[(4S)-3-Acetyl-2,2,5,5-tetramethyl-4-thiazolidinyl]carbonyl]-4-[(2,6-dichlorobenzoyl)amino]-L-phenylalanine Methyl Ester]	≥ 750 nM	≥ 1000 nM
O=C(O)c1cncc(C(=O)N2CSC[C@@H]2C(=O)N[C@@H](Cc2ccc(NC(=O)c3c(Cl)cccc3Cl)cc2)C(=O)O)c1 [Example 263]	50 to 750 nM	250 to 1000 nM
O=C(O)c1ccc(C(=O)N2CSC[C@H]2C(=O)N[C@@H](Cc2ccc(NC(=O)c3c(Cl)cccc3Cl)cc2)C(=O)O)nc1 [Example 241]	50 to 750 nM	≥ 1000 nM
COC(=O)[C@H](Cc1ccc(NC(=O)c2c(Cl)cccc2Cl)cc1)NC(=O)[C@H]1CSCN1C(C)=O [Example 61, N-[[(4S)-3-Acetyl-4-thiazolidinyl]carbonyl]-4-[(2,6-dichlorobenzoyl)amino]-L-phenylalanine Methyl Ester]	50 to 750 nM	250 to 1000 nM
COCCC(=O)N1CCCC[C@@H]1C(=O)N[C@@H](Cc1ccc(NC(=O)c2c(Cl)cccc2Cl)cc1)C(=O)O [Example 249]	50 to 750 nM	250 to 1000 nM
O=C(Nc1ccc(C[C@H](NC(=O)[C@H]2CSCN2C(=O)C2CCCO2)C(=O)O)cc1)c1c(Cl)cccc1Cl (stereo partly drawn) [Example 266]	≤ 50 nM	≤ 250 nM
O=C(O)/C=C/C(=O)N1CCCC[C@H]1C(=O)N[C@@H](Cc1ccc(NC(=O)c2c(Cl)cccc2Cl)cc1)C(=O)O [Example 176]	50 to 750 nM	≥ 1000 nM
O=C(O)/C=C/C(=O)N1CCC[C@H]1C(=O)N[C@@H](Cc1ccc(NC(=O)c2c(Cl)cccc2Cl)cc1)C(=O)O [Example 228]	50 to 750 nM	≥ 1000 nM
CCOC(=O)N1[C@@H](C(=O)N[C@@H](Cc2ccc(NC(=O)c3c(Cl)cccc3Cl)cc2)C(=O)OC)CSC12CCCCC2 (relative stereo) [Example 79, [S-(R*,R*)]-3-[[[1-[[4-[(2,6-Dichlorobenzoyl)amino]phenyl]methyl]-2-methoxy-2-oxoethyl]amino]carbonyl]-1-thia-4-azaspiro[4.5]decanecarboxylic Acid 4-Ethyl Ester]	≥ 750 nM	≥ 1000 nM
CC(C)(C)OC(=O)N1[C@@H](C(=O)N[C@@H](Cc2ccc(NC(=O)c3c(Cl)cccc3Cl)cc2)C(=O)O)CSC1(C)C (relative stereo) [Example 76, [S-(R*,R*)]-4-[[[1-Carboxy-2-[4-[(2,6-dichlorobenzoyl)amino]phenyl]ethyl]amino]carbonyl]-2,2-dimethyl-3-thiazolidinecarboxylic Acid 3-(1,1-Dimethylethyl)ester]	50 to 750 nM	≤ 250 nM
NC(=O)[C@H](Cc1ccc(OCc2c(Cl)cccc2Cl)cc1)NC(=O)[C@H]1CSCN1C(=O)OCCN1CCOCC1 (relative stereo) [Example 89, [S-(R*,R*)]-4-[[[1-[[4-[(2,6-Dichlorophenyl)methoxy]phenyl]methyl]-2-amino-2-oxoethyl]amino]carbonyl]-3-thiazolidinecarboxylic Acid 3-[2-(4-morpholinyl)ethyl]ester]	50 to 750 nM	≥ 1000 nM
CCOC(=O)N1[C@@H](C(=O)N[C@@H](Cc2ccc(NC(=O)c3c(Cl)cccc3Cl)cc2)C(=O)OC)CSC12CCCC2 (relative stereo) [Example 77, [S-(R*,R*)]-3-[[[1-[[4-[(2,6-Dichlorobenzoyl)amino]phenyl]methyl]-2-methoxy-2-oxoethyl]amino]carbonyl]-1-thia-4-azaspiro[4.4]nonane-4-carboxylic Acid 4-Ethyl Ester]	≥ 750 nM	≥ 1000 nM
CC(=O)N1[C@@H](C(=O)N[C@@H](Cc2ccc(NC(=O)c3c(Cl)cccc3Cl)cc2)C(=O)O)CSC1(C)C [Example 84, N-[[(4S)-3-Acetyl-2,2-dimethyl-4-thiazolidinyl]carbonyl]-4-[(2,6-dichlorobenzoyl)amino]-L-phenylalanine]	≤ 50 nM	≤ 250 nM
O=C(O)c1cccc(C(=O)N2CCC[C@@H]2C(=O)N[C@@H](Cc2ccc(NC(=O)c3c(Cl)cccc3Cl)cc2)C(=O)O)n1 [Example 258]	≤ 50 nM	≤ 250 nM
COC(=O)[C@H](Cc1ccc(NC(=O)c2c(Cl)cccc2Cl)cc1)NC(=O)[C@H]1CSC(C)(C)N1C(C)=O [Example 83, N-[[(4S)-3-Acetyl-2,2-dimethyl-4-thiazolidinyl]carbonyl]-4-[(2,6-dichlorobenzoyl)amino]-L-phenylalanine Methyl Ester]	50 to 750 nM	≥ 1000 nM
CC(C)(C)OC(=O)N1CSC[C@H]1C(=O)N[C@@H](Cc1ccc(OCc2c(Cl)cccc2Cl)cc1)C(=O)O (relative stereo) [Example 41, [R-(R*,S*)]-4-[[[1-Carboxy-2-[4-[(2,6-dichlorophenyl)methoxy]phenyl]ethyl]amino]carbonyl]-3-thiazolidinecarboxylic Acid 3-(1,1-Dimethylethyl)ester]	≥ 750 nM	≥ 1000 nM
COC(=O)[C@H](Cc1ccc(NC(=O)c2c(Cl)cccc2Cl)cc1)NC(=O)[C@@H]1CSC(C)(C)N1C(=O)OC(C)(C)C (relative stereo) [Example 72, [R-(R*,S*)]-4-[[[1-[[4-[(2,6-Dichlorobenzoyl)amino]phenyl]methyl]-2-methoxy-2-oxo-ethyl]amino]carbonyl]-2,2-dimethyl-3-thiazolidinecarboxylic Acid 3-(1,1-Dimethylethyl)ester]	≥ 750 nM	≥ 1000 nM
O=C(O)c1cc(C(=O)N2CSC[C@H]2C(=O)N[C@@H](Cc2ccc(NC(=O)c3c(Cl)cccc3Cl)cc2)C(=O)O)n[nH]1 [Example 243]	50 to 750 nM	250 to 1000 nM
O=C(NO)[C@H](Cc1ccc(OCc2c(Cl)cccc2Cl)cc1)NC(=O)[C@H]1CSCN1C(=O)OCCN1CCCCC1 [Example 93]	≥ 750 nM	≥ 1000 nM
CC(C)(C)OC(=O)N1CSC[C@H]1C(=O)N[C@@H](Cc1ccc(NC(=O)c2c(Cl)cccc2Cl)cc1)C(=O)O (stereo in doubt) [Example 14, [R-(R*,S*)]-4-[[[1-Carboxy-2-[4-[(2,6-dichlorobenzoyl)amino]phenyl]ethyl]amino]carbonyl]-3-thiazolidinecarboxylic Acid 3-(1,1-Dimethylethyl)ester]	50 to 750 nM	250 to 1000 nM
O=C(O)CCCC(=O)N1CSC[C@@H]1C(=O)N[C@@H](Cc1ccc(NC(=O)c2c(Cl)cccc2Cl)cc1)C(=O)O (relative stereo) [Example 60, [S-(R*,R*)]-4-[[[1-Carboxy-2-[4-[(2,6-dichlorobenzoyl)amino]phenyl]ethyl]amino]carbonyl]-δ-oxo-3-thiazolidinepentanoic Acid]	≤ 50 nM	≤ 250 nM
[S]-3-[[[1-[[4-[(2,6-Dichlorobenzoyl)amino]phenyl]methyl]-2-methoxy-2-oxoethyl]amino]-carbonyl]-1-azetidinecarboxylic Acid 1-(1,1-Dimethyl)ethyl Ester [Example 145]	≥ 750 nM	≥ 1000 nM
